This note sets out measurements from patent US20130237557A1, “TREATMENT” (UCL BUSINESS PLC, priority 2010, published 2013).

The structures appear in SMILES notation. Entries after “also recorded” stand apart in the source; their conditions may differ.

Test [1] relates to bile duct ligated (BDL) rat. Briefly: Haemodynamics in bile duct ligated (BDL) rats treated with alpha 2a antagonist. The class given is in vivo. The note with it: for mean arterial pressure (MAP): two doses 24 hours prior to study, vs placebo/untreated BDL; for hepatic arterial blood flow: vs BDL treated with saline, Transonic flow probe. An excerpt:
(§1) These experiments utilised an established animal model of cirrhosis, the bile duct ligated (BDL) rat. BDL rats may be generated by methods known in the art. For example, male Sprague-Dawley rats (200-250 g) may be used for this procedure. Following anaesthetisation, a mid-line laparotamy may be performed, the bile duct exposed, triply ligated with 4.0 silk suture, and severed between the second and third ligature. The wound is then closed in layers with absorbable suture, and the animal allowed to recover in a quiet room before being returned to the animal storage facility.
(§2) 29 bile duct ligated rats and 17 sham operated rats were studied at the end of four weeks. The animals were randomised to receive a placebo (saline) or an alpha 2a antagonist (BRL 44408, Sigma, UK). The dose applied was 10 mgs/Kg by sub cutaneous injection: two doses were delivered 24 hours prior to study.
(§3) Mean arterial pressure was measured via a transducer through the left carotid artery. Portal pressure readings were taken by direct puncture of portal vein and transducer. Portal vein and hepatic artery flow measurements were done with a transonic flow probe and meter. All measurements were done in triplicates and recorded in data collection sheets.
(§4) Data are shown as median (range) or mean±standard error (SEM). Two tailed unpaired t-test was used to define difference between the means of normally distributed data of equal variance. For data that was not equally distributed, a Mann-Whitney test was used. Comparison of multiple groups was by analysis of variance (ANOVA) with a Bonferroni correction for multiple comparison.

Test [2] concerns bile duct ligated (BDL) rat. The test can be described thus: Plasma biochemistry in BDL rats (colorimetry, Cobas Integra). The test is classed as in vivo.
Text: as §1, §2
(§5) Plasma biochemistry was measured by colorimetry using a Cobas Integra. Alpha 2a adrenergic receptor (ADRA 2a) and Nuclear Factor κ B (NFκB) protein expression were assessed by western blotting. ADRA2a expression was determined by immunohistochemistry.
as §4

Test [3] relates to sham operated rat. The test can be described thus: Haemodynamics in sham operated rats treated with alpha 2a antagonist. The class given is in vivo. As to the method: as §2, §3, §4
Test [4] concerns bile duct ligated (BDL) rat. Briefly: Brain water content in BDL rats. The class given is in vivo. The note with it: vs untreated BDL.
Text: as §1, §2
The brain water content signifies the amount of brain swelling that occurs as a result of inflammation in the brain.

The test system of test [5] is Nuclear Factor κ B (NFκB). The test can be described thus: NFκB protein expression in liver tissue of BDL rats by western blotting. The class given is in vivo, rat. The note with it: vs untreated BDL.
Text: as §1, §2, §5
The protein expression was assessed by the western blotting technique. NFkB is an important regulator of cell signalling pathways including apoptosis and inflammation.

Test [6] relates to sham operated rat. Briefly: Plasma biochemistry in sham operated rats (colorimetry, Cobas Integra). The test is classed as in vivo. The note with it: sham rats treated vs sham operated rats. As to the method:
as §2, §5, §4

On to `CC1c2ccccc2CN1CC1=NCCN1` (centres unmarked) [BRL 44408, 2-[(4,5-Dihydro-1H-imidazol-2-yl)methyl]-2,3-dihydro-1-methyl-1H-isoindole], for which the “mean arterial pressure (MAP)” value in test [1] (BDL rats, 10 mgs/Kg sub cutaneous) is listed as “significantly improved; also recorded: increased”; in test [1] (BDL rats, 10 mgs/Kg sub cutaneous, listed as ADRA2a antagonist), “significant increase”; in the test on sham operated rat [3] (sham operated rats, 10 mgs/Kg sub cutaneous, treated vs untreated sham), “no difference”. Further, the portal pressure in test [1] (BDL rats, 10 mgs/Kg sub cutaneous, two doses, treated group value (placebo 18.0±3.7), p<0.001) was 11.4±3.4 mmHg; in test [1] (BDL rats, vs BDL rats treated with saline, change in words), “significantly reduced; also recorded: lowered”; with sham operated rat [3] (sham rats treated vs saline) it was “no difference”. Further, in test [1] (BDL rats, heart rate x stroke volume from echocardiogram, vs untreated BDL), the cardiac output result is “improved significantly”. The intra hepatic resistance in test [1] (BDL rats, post treatment value (untreated 1.1±0.2), p<0.05, portal pressure divided by hepatic blood flow) is 0.5±0.1 mmHg/ml/min; in test [1] (BDL rats, vs untreated BDL, change in words), “significantly reduced; also recorded: lowered”; with sham operated rat [3] (sham rats treated vs sham rats), “no difference”. In addition, the “hepatic arterial blood flow” value in test [1] (BDL rats) is given as “markedly increased”; in test [1] (BDL rats, listed as BRL44408), “improved”; in the test on sham operated rat [3] (sham operated rats, vs sham treated with saline), “improvement”. Besides, the “portal venous blood flow” value in test [1] (treated group vs placebo) was “without significant change”. In test [2] (p=0.5), the “liver specific alanine aminotransferase (ALT)” value is “non significant increase”. For the same compound, the plasma ammonia entry in test [2] (vs untreated BDL) is listed as “trend towards reduction; also recorded: reduced”. Moreover, in test [2] (vs untreated BDL), the “plasma aspartate aminotransaminase (AST)” value was “significant reduction; also recorded: reduced”. Moreover, the plasma lactate result in test [2] (vs untreated BDL) is recorded as “significant reduction”; in test [2] (vs untreated BDL, listed as BRL) it was “significantly reduced”. In addition, the plasma creatinine entry is given as “trend towards reduction; also recorded: improved; also recorded: reduced” in test [2] (vs untreated BDL, marker for renal function) and “no difference” in the test with sham operated rat [6]. Moreover, the brain water content entry in test [4] is given as “significantly decreased; also recorded: reduced”. In test [5], the “NFkB protein expression in the liver tissue” value was “reduced”.
